For one assay, the system named is Mus musculus. As to the kind of experiment: In vivo AMPA antagonism to protect 50% animals after intraperitoneal administration of the compound. In kind it is functional. As to conditions: ip.
For assay [1], the target named is Glutamate receptor ionotropic, NMDA 2C (Rattus norvegicus, UniProt Q00961). The assay is described as follows: Ability to displace [3H]glycine from NMDA receptor.
Assay [2] addresses Glutamate receptor ionotropic AMPA (Homo sapiens, UniProt P42261+P42262+P42263+P48058).
Description: Displacement of [3H]AMPA from AMPA receptor

This is an account of results in ChEMBL document CHEMBL1130362, “Pyrrolylquinoxalinediones: The importance of pyrrolic substitution on AMPA receptor binding” (Bioorg Med Chem Lett, 1997).

A value given as a limit tells only on which side of the number the result lay.

Sequence of Glutamate receptor ionotropic, NMDA 2C (Q00961 whole entry): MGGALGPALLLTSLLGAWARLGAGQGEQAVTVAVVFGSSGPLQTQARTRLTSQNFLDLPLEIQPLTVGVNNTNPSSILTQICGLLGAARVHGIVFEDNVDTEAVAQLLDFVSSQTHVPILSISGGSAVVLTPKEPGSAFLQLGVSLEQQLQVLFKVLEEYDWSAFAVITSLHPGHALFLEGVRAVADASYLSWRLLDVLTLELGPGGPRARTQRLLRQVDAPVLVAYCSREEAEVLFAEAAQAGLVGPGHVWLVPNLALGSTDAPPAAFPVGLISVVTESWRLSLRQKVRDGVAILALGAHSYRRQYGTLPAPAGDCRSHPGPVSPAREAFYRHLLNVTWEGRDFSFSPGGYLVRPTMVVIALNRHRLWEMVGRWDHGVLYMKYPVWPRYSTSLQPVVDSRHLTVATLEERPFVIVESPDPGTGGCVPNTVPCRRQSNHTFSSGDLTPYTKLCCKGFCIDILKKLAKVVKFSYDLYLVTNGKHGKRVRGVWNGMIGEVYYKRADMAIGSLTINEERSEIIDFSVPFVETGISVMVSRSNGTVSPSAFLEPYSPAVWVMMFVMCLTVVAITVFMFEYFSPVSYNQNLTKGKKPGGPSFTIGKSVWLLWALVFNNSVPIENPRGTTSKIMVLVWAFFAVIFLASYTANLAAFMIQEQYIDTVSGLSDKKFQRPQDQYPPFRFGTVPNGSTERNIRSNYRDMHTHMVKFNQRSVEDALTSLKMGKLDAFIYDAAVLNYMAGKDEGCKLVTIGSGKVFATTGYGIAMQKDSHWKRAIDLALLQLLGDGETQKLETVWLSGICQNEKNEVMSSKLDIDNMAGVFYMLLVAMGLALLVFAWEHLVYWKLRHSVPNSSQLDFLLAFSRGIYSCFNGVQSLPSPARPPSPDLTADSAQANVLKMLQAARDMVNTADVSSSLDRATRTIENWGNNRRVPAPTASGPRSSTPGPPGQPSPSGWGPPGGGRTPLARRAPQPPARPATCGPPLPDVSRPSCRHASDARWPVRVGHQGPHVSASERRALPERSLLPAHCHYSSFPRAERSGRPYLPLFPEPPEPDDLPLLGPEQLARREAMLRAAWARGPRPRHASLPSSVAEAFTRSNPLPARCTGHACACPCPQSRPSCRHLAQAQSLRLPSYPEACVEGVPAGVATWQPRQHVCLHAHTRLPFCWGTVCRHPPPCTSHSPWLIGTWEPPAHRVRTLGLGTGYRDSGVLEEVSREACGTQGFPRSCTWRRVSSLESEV

Usually ED50 stands for the midpoint of the dose-response relation. A low value points to an effect at a small dose. Broadly, the Ki is a measure of affinity in units of concentration, obtained from inhibition or displacement. In turn, `CC(=O)NCc1ccn(-c2cc3c(cc2C(F)(F)F)[nH]c(=O)c(=O)n3CC(=O)O)c1` came in with a median effective dose (ED50) with Mus musculus of 10 mg/kg. In addition, the inhibitory constant (Ki) is over 30000 nM in assay [1] and 76 nM in assay [2].
Take `CN(Cc1ccccc1)Cc1ccn(-c2cc3nc(O)c(O)nc3cc2[N+](=O)[O-])c1`: affinity in assay [2] was put at a Ki of 880 nM.
Same read-out and setting: next, `O=C(O)Cn1c(=O)c(=O)[nH]c2cc(C(F)(F)F)c(-n3cccc3)cc21`: 180 nM; `NCc1ccn(-c2cc3c(cc2[N+](=O)[O-])[nH]c(=O)c(=O)n3CC(=O)O)c1`: 840 nM.
Compound `O=C(O)Cn1c(=O)c(=O)[nH]c2cc(C(F)(F)F)c(-n3ccc(CNC(=O)Nc4ccccc4)c3)cc21` had an ED50 in the assay on Mus musculus of 18 mg/kg. The Ki in assay [1] is over 30000 nM; in assay [2], 15 nM.
`NCc1ccn(-c2cc3nc(O)c(O)nc3cc2C(F)(F)F)c1` showed a Ki in assay [2] of 980 nM.
As to `O=C(O)Cn1c(=O)c(=O)[nH]c2cc(C(F)(F)F)c(-n3ccc(CNC(=O)Nc4ccc(Br)cc4)c3)cc21`, in the assay with Mus musculus, the ED50 turned out to be 4.1 mg/kg. Further, the figures for the Ki in assay [1] and in assay [2] were over 30000 nM and 4 nM, respectively.
In assay [2], `NCc1ccn(-c2cc3c(cc2C(F)(F)F)[nH]c(=O)c(=O)n3CC(=O)O)c1` had a Ki of 10000 nM.
In the case of `O=[N+]([O-])c1cc2nc(O)c(O)nc2cc1-n1cccc1`, in assay [2], the affinity corresponds to a Ki of 400 nM.
The compound `O=C(O)Cn1c(=O)c(=O)[nH]c2cc([N+](=O)[O-])c(-n3ccc(/C=N/OCc4ccccc4)c3)cc21` had a Ki in assay [2] of 210 nM.
As for `O=C(O)Cn1c(=O)c(=O)[nH]c2cc([N+](=O)[O-])c(-n3ccc(CNC(=O)Nc4ccccc4)c3)cc21`, in the assay with Mus musculus, the ED50 was over 30 mg/kg. Moreover, the Ki in assay [1] is over 30000 nM; in assay [2] it was 71 nM.
The compound `O=C(O)Cn1c(=O)c(=O)[nH]c2cc(C(F)(F)F)c(-n3ccc(/C=N/OCc4ccccc4)c3)cc21` registered a Ki in assay [2] of 250 nM.
On the same count and under the same terms, as for `Oc1nc2cc(-n3cccc3)c(C(F)(F)F)cc2nc1O`, the figure is 3000 nM; as for `O=Cc1ccn(-c2cc3nc(O)c(O)nc3cc2C(F)(F)F)c1`, 650 nM.
Still for that read-out and setting: next, `COC(=O)c1cccn1-c1cc2nc(O)c(O)nc2cc1C(F)(F)F`: over 25000 nM.
Regarding `O=C(O)Cn1c(=O)c(=O)[nH]c2cc(C(F)(F)F)c(-n3ccc(CNC(=O)NCc4ccccc4)c3)cc21`, the ED50 in the assay with Mus musculus was determined as 30 mg/kg. Besides, the Ki in assay [1] was over 30000 nM; in assay [2] it was 49 nM.
`O=C(O)Cn1c(=O)c(=O)[nH]c2cc(C(F)(F)F)c(-n3ccc(CNC(=O)Cc4ccccc4)c3)cc21` gave a Ki in assay [2] of 140 nM.
The compound `O=C(O)Cn1c(=O)c(=O)[nH]c2cc([N+](=O)[O-])c(-n3ccc(CNC(=O)NCCc4ccncc4)c3)cc21` gave an inhibition constant Ki in assay [2] of 95 nM.
Compound `O=C(O)Cn1c(=O)c(=O)[nH]c2cc(C(F)(F)F)c(-n3ccc(CNC(=O)Nc4ccc([N+](=O)[O-])cc4)c3)cc21` returned an ED50 with Mus musculus of 5.5 mg/kg. For the same compound, the inhibition constant Ki in assay [1] was over 30000 nM; in assay [2], 5 nM.
On to `O=C(O)c1cccn1-c1cc2nc(O)c(O)nc2cc1C(F)(F)F`, for which, in assay [2], the Ki was over 25000 nM.
The same measure, in the same setting: as for `Cc1ccc(C)n1-c1cc2nc(O)c(O)nc2cc1[N+](=O)[O-]`, the figure is 20000 nM.
Same read-out and setting: as for `Cc1ccc(C)n1-c1cc2nc(O)c(O)nc2cc1C(F)(F)F`, the figure is over 25000 nM; as for `O=C(O)Cn1c(=O)c(=O)[nH]c2cc([N+](=O)[O-])c(-n3cccc3)cc21`, 70 nM.
In turn, `O=C(NCc1ccn(-c2cc3nc(O)c(O)nc3cc2[N+](=O)[O-])c1)Nc1ccccc1` registered an ED50 in the assay with Mus musculus of 30 mg/kg. In addition, the figures for the inhibition constant (Ki) in assay [1] and in assay [2] were over 30000 nM and 250 nM, respectively.
Turning to `Cc1ccc(C)n1-c1cc2c(cc1C(F)(F)F)[nH]c(=O)c(=O)n2CC(=O)O`, the Ki in assay [2] was 2000 nM.
On the same count and under the same terms, as for `O=C(NCc1ccccc1)c1cccn1-c1cc2nc(O)c(O)nc2cc1C(F)(F)F`, the figure is over 25000 nM.
In turn, `O=C(O)Cn1c(=O)c(=O)[nH]c2cc(C(F)(F)F)c(-n3ccc(CNC(=O)Nc4ccc(C(F)(F)F)cc4)c3)cc21` returned an ED50 in the assay on Mus musculus of 14 mg/kg. The figures for the Ki in assay [1] and in assay [2] were over 30000 nM and 5 nM, respectively.
As to `CCN(CC)Cc1ccn(-c2cc3c(cc2C(F)(F)F)[nH]c(=O)c(=O)n3CC(=O)O)c1`, the Ki in assay [2] was found to be 890 nM.
The compound `O=C(O)Cn1c(=O)c(=O)[nH]c2cc(C(F)(F)F)c(-n3ccc(CNC(=O)c4ccccc4)c3)cc21` showed an ED50 with Mus musculus of over 30 mg/kg. Further, the Ki in assay [1] is over 30000 nM; in assay [2], 78 nM.
Compound `NCc1ccn(-c2cc3nc(O)c(O)nc3cc2[N+](=O)[O-])c1` displayed an inhibition constant Ki in assay [2] of 2000 nM.
Same read-out and setting: as for `O=C(O)Cn1c(=O)c(=O)[nH]c2cc([N+](=O)[O-])c(-n3ccc(CNC(=O)CCc4ccccc4)c3)cc21`, the figure is 500 nM.
`O=C(O)Cn1c(=O)c(=O)[nH]c2cc([N+](=O)[O-])c(-n3ccc(CC(=O)N4CCCCC4)c3)cc21`: affinity in assay [2] was put at a Ki of 3000 nM.
Same read-out and setting: next, `O=C(NCc1ccn(-c2cc3nc(O)c(O)nc3cc2[N+](=O)[O-])c1)Nc1ccncc1`: 110 nM; `O=C(O)Cn1c(=O)c(=O)[nH]c2cc([N+](=O)[O-])c(-n3ccc(CNC(=O)c4ccncc4)c3)cc21`: 280 nM.
In turn, `NS(=O)(=O)c1cccc2c1c([N+](=O)[O-])cc1nc(O)c(O)nc12` [NBQX] returned an ED50 with Mus musculus of over 50 mg/kg.
Turning to `O=c1[nH]c2cc(-n3ccnc3)c([N+](=O)[O-])cc2[nH]c1=O` [YM-90K], the affinity in assay [2], expressed as Ki, was 135 nM.
